Laboratory results reported in publication PMC5329948, “Caspase vinyl sulfone small molecule inhibitors prevent axonal degeneration in human neurons and reverse cognitive impairment in Caspase-6-overexpressing mice” (Molecular Neurodegeneration, 2017).

Key:
[1] = tested on: primary human CNS neurons; test: Cellular toxicity in primary human neurons (phase contrast, MTT); assay type: cell-based; conditions: for toxicity in human neurons: concentrations up to 100 μM; for neuronal morphology / mitochondrial reductive potential (MTT): primary human neurons; for neuronal morphology: 100 μM, 24 h; for mitochondrial reductive potential (MTT): 24 or 48 h
Method: HCT116: Human colon carcinoma (HCT116) cells (ATCC, Manassas, VA, USA) were cultured in McCoy’s 5A modified media (Thermo Fisher Scientific, Waltham, MA, USA) supplemented with 10% fetal bovine serum (Thermo Fisher Scientific, Waltham, MA, USA) and transfected with 1 μg of pCep4βCasp6p20p10 mixed with 8 μg of polyethyleneimine (Polysciences Inc., Warrington, PA, USA). Protein expression was allowed for 24 h before treating with vehicle (PBS), 100 μM NWL-117, or 100 μM NWL-154 for 2 h. For NWL inhibitor kinetic experiments, 100 μM of NWL-117 or NWL-154 was added at 120, 90, 60, 30, 15, or 0 min before harvest. […] For recovery time course experiments, after the initial treatment with 100 μM of NWL-117 or −154 for 2 h, the media was replaced with fresh media for 120, 90, 60, 30, 15, or 0 min before harvest. Primary Human CNS neurons: Cortical tissues were obtained from the Birth Defects Research Laboratory (BDRL, University of Washington, Seattle, USA) in accordance with NIH ethical guidelines approved by McGill University’s institutional review board and primary neurons cultured as previously described. Primary human neurons were seeded on poly-L-lysine-coated (5 μg/mL) 6-well plates or glass coverslips coated with poly-L-lysine and laminin (5 μg/mL) (Sigma-Aldrich, Oakville, ON, CA) at a density of 3x10^6 cells/mL. Primary human neurons were pre-treated with 0.1 μM epoxomicin (Enzo LifeSciences, Farmingdale, NY, USA) and 100 μM NWL-117, 100 μM NWL-154, or vehicle (PBS) for 2 h, and serum-deprived for 2 h in the presence of epoxomicin and vehicle (PBS), 100 μM NWL-117, or 100 μM NWL-154 before harvesting or measuring caspase activity with FLICA, as described below.
Immunofluorescence on human neuron cultures: Primary human neurons were pre-treated 2 h and serum-deprived in the presence of 100 μM NWL-117, 100 μM NWL-154, or 5 μM Z-VEID-fmk (Biomol, Plymouth meeting, PA, USA) for 24 h. Following treatment, human neurons were washed once with warm PBS, fixed for 20 min at room temperature with 4% paraformaldehyde (Sigma, Oakville, ON, CA)/4% sucrose (BioRad, Mississauga, ON, CA) for TubΔCasp6 or 2% formaldehyde (Thermo Fisher Scientific, Waltham, MA, USA)/0.2% glutaraldehyde (Sigma, Oakville, ON, CA) for pBudEGFP or pBudEGFP/APP^WT-transfected neurons, incubated in permeabilization buffer (0.1% Triton X-100, 0.1 sodium citrate) for 1 min on ice, washed with PBS, blocked for 20 min at room temperature with 10% goat serum (Sigma, Oakville, ON, CA), and incubated with primary antibodies diluted in 10% goat serum in PBS overnight at 4 °C in a humid chamber. The glass coverslips were washed with PBS, and incubated with goat anti-rabbit secondary antibody coupled to Alexa 488 (Molecular Probes, Eugene, OR, USA) or Cy3 (GE Healthcare Life Sciences, Baie D’Urfe, QC, CA) and Hoechst 33342 (ImmunoChemistry, Bloomington, MN, USA) at 1 μg/mL for 2 h at room temperature. The coverslips were washed with PBS and rinsed in Milli-Q water before mounting in fluoromount (Dako, Burlington, ON, CA). Images were acquired by fluorescence microscopy and quantified using the ImageJ software (NIH, Bethesda, MD, USA) for TubΔCasp6 and manually counted for transfected EGFP(+)-neurons. Time lapse-imaging by live fluorescence microscopy: Primary human neurons were transfected with gold beads coated with pBudEGFP or pBudEGFP/APP^WT using a Helios Gene gun (BioRad, Mississauga, ON, CA). Briefly, cells were pre-treated with 100 μM NWL inhibitors or 5 μM Z-VEID-fmk for 2 h. The media was removed and the neurons were shot at 100 psi. The media was quickly replaced with the inhibitors present. The plasmid was expressed for 16 h before setting up the fluorescence microscope (Nikon Eclipse Ti) to acquire 20 images per condition every hour for 72 h at 37 °C with 5% CO2. The images were analyzed by counting the total number of neurons (50–100 neurons per condition per independent experiment), and the number of beaded, swollen soma, and healthy neurons. […]

[2] = target: T1, Casp6 in serum-deprived primary human neurons (Homo sapiens, UniProt P55212); test: Casp6 activity in serum-deprived primary human neurons (VEIDase, FLICA, TubΔCasp6); assay type: cell-based; conditions: 100 μM
T1 construct: endogenous in cells; host or cells: primary human CNS neurons from cortical tissue, serum-deprived
Method: HCT116: Human colon carcinoma (HCT116) cells (ATCC, Manassas, VA, USA) were cultured in McCoy’s 5A modified media (Thermo Fisher Scientific, Waltham, MA, USA) supplemented with 10% fetal bovine serum (Thermo Fisher Scientific, Waltham, MA, USA) and transfected with 1 μg of pCep4βCasp6p20p10 mixed with 8 μg of polyethyleneimine (Polysciences Inc., Warrington, PA, USA). Protein expression was allowed for 24 h before treating with vehicle (PBS), 100 μM NWL-117, or 100 μM NWL-154 for 2 h. For NWL inhibitor kinetic experiments, 100 μM of NWL-117 or NWL-154 was added at 120, 90, 60, 30, 15, or 0 min before harvest. […]
Recombinant or extracted cellular Casp6 activity: Casp6 activity was assessed by in vitro fluorogenic assays using Ac-Val-Glu-Ile-Asp-(7-Amino-4-trifluoromethylcouramin) (Ac-VEID-AFC: Enzo LifeSciences, NY, USA) as the Casp6 substrate. The activity was measured in Stennicke’s buffer (SB) (20 mM piperazine-N, N-bis (2-ethanesulfonic acid) (PIPES: BioShop Canada Inc, Burlington, Ontario, CA) pH 7.2, 30 mM NaCl, 1 mM ethylenediaminetetraacetic acid (EDTA), 0.1% 3-[(3-cholamidopropyl)-dimethylammonio]-2-hydroxy-1-propanesulfonic acid (CHAPS), 10% sucrose). […] Fluorescence units were converted to the moles of AFC released based on a standard curve of 0–625 picomoles of free AFC. Cleavage rates were calculated from the linear phase of the assay. […]

T1 sequence (P55212 24-293): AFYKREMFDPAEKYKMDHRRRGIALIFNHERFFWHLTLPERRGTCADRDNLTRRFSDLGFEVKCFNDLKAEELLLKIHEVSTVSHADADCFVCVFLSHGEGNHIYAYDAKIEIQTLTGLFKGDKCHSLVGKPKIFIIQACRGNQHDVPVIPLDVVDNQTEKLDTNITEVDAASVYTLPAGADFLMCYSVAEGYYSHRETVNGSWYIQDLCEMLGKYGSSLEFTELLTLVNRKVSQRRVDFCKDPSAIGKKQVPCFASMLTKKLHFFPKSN

| Structure (SMILES) | toxicity in human neurons [1] | neuronal morphology [1] | mitochondrial reductive potential (MTT) [1] | Casp6 fluorogenic and FLICA-measured activity and TubΔCasp6 [2] |
| --- | --- | --- | --- | --- |
| CCC(C)[C@H](NC(=O)[C@H](CCC(=O)O)NC(=O)[C@@H](NC(=O)OCc1ccccc1)C(C)C)C(=O)N[C@H](/C=C/S(C)(=O)=O)CC(=O)O (some centres unmarked) [NWL-117] | neither NWL-117 nor −154 is toxic | did not change neuronal morphology | comparable to vehicle-treated neurons | decreased |
| CCC(C)[C@H](NC(=O)[C@H](CCC(=O)O)NC(=O)[C@@H](NC(=O)OCc1ccccc1)C(C)C)C(=O)N[C@H](/C=C(\Cl)S(C)(=O)=O)CC(=O)O (some centres unmarked) [NWL-154] | neither NWL-117 nor −154 is toxic | did not change neuronal morphology | comparable to vehicle-treated neurons | decreased |
